Test results: US11078202B2, “β-lactamase inhibitor and use thereof” (priority 2018, dated 2021)
Counter-ions that a name gives are not always drawn.

Key:
Format in all cases: cell-based
[1] = system: Klebsiella pneumoniae XNWB 0003; assay: MIC assay of test compounds combined with imipenem (4 μg/mL); settings: imipenem 4 μg/mL fixed
Protocol: (§1) The bacterial strains used for the minimum inhibitory concentration (MIC) test were frozen in a −80° C. ULT freezer and thawed 2 days before use. A small amount of frozen bacterial strains were scraped using a sterile inoculating loop, streaked onto a TSA solid culture dish for inoculation, and then cultured for 20-24 h at 35±2° C. in a normal atmospheric environment. 5-10 colonies with similar morphology were picked from the culture dish using a sterile inoculating loop and then re-streaked onto a suitable solid culture dish. Then the dish was placed into a normal incubator for culture for 20-24 h at 35±2° C. 5-10 single bacterial colonies were picked from the solid culture dish, resuspended in 500 μL of 0.9% NaCl, and adjusted to an OD600 of 0.1-0.15 with a spectrophotometer. The bacteria were then diluted 300-fold with 1.1×CAMHB. […] Dilution of test compounds: […] 2 μL of each compound in the dilution master plate of the test compounds was transferred to the corresponding well of the assay plates. In the mean time, 2 μL of 100% DMSO was transferred to the compound-free wells (GC and SC wells). (1) 8 μL of imipenem in the additive plate of imipenem was transferred to the corresponding wells of the assay plates; (2) 8 μL of ceftazidime in the additive plate of ceftazidime was transferred to the corresponding wells of the assay plates; (3) 8 μL of ampicillin in the additive plate of ampicillin was transferred to the corresponding wells of the assay plates. 90 μL of corresponding bacterial inocula were added to wells (except for SC wells) of the assay plates. After addition, the 6 assay plates were covered by sterile covers. The mixtures in the assay plates were centrifuged by a centrifuge at 1000 rpm for 30 s, and mixed uniformly by oscillating with a microplate oscillator at 800 rpm for 1 min, and then cultured in a common incubator for 16-20 h at 35±2° C. The minimum inhibitory concentration of each compound was recorded by reference to guidelines from the Clinical and Laboratory Standards Institute. […] The effect of the test compounds in combination with imipenem, ceftazidime, and ampicillin was also tested. […] The bacterial inocula in the assay plates were resuscitated from TSA and diluted in CAMHB, while growth controls (GC wells) and sterile controls (SC wells) were set up in the assay plates. The minimum inhibitory concentration of each compound combination against different bacteria was observed and recorded after the assay plates were incubated in a common incubator at 35±2° C. for 16-20 h, and the results are shown in Tables 1-3.

[2] = system: Pseudomonas aeruginosa XNWB 0008; assay: as above; settings: imipenem 4 μg/mL fixed
Protocol: as §1

[3] = system: Klebsiella pneumoniae XNWB 0006; assay: as above; settings: imipenem 4 μg/mL fixed
Protocol: as §1

[4] = system: Klebsiella pneumoniae XNWB 0005; assay: as above; settings: imipenem 4 μg/mL fixed
Protocol: as §1

[5] = system: Klebsiella pneumoniae XNWB 0001; assay: as above; settings: imipenem 4 μg/mL fixed
Protocol: as §1

[6] = system: Klebsiella pneumoniae XNWB 0002; assay: as above; settings: imipenem 4 μg/mL fixed
Protocol: as §1

[7] = system: Klebsiella pneumoniae XNWB 0004; assay: as above; settings: imipenem 4 μg/mL fixed
Protocol: as §1

[8] = system: Acinetobacter baumannii XNWB 0007; assay: as above; settings: imipenem 4 μg/mL fixed
Protocol: as §1

[9] = system: Klebsiella pneumoniae XNWB 0003; assay: MIC assay of test compounds combined with ceftazidime (8 μg/mL); settings: ceftazidime 8 μg/mL fixed
Protocol: as §1

[10] = system: Pseudomonas aeruginosa XNWB 0008; assay: as above; settings: ceftazidime 8 μg/mL fixed
Protocol: as §1

[11] = system: Klebsiella pneumoniae XNWB 0006; assay: as above; settings: ceftazidime 8 μg/mL fixed
Protocol: as §1

[12] = system: Klebsiella pneumoniae XNWB 0005; assay: as above; settings: ceftazidime 8 μg/mL fixed
Protocol: as §1

[13] = system: Klebsiella pneumoniae XNWB 0001; assay: as above; settings: ceftazidime 8 μg/mL fixed
Protocol: as §1

[14] = system: Klebsiella pneumoniae XNWB 0002; assay: as above; settings: ceftazidime 8 μg/mL fixed
Protocol: as §1

[15] = system: Klebsiella pneumoniae XNWB 0004; assay: as above; settings: ceftazidime 8 μg/mL fixed
Protocol: as §1

[16] = system: Acinetobacter baumannii XNWB 0007; assay: as above; settings: ceftazidime 8 μg/mL fixed
Protocol: as §1

Compound	The minimum concentration of test compounds combined with imipenem (4 μg/mL) for bacteriostasis [1]	The minimum concentration of test compounds combined with imipenem (4 μg/mL) for bacteriostasis [2]	The minimum concentration of test compounds combined with imipenem (4 μg/mL) for bacteriostasis [3]	The minimum concentration of test compounds combined with imipenem (4 μg/mL) for bacteriostasis [4]	The minimum concentration of test compounds combined with imipenem (4 μg/mL) for bacteriostasis [5]	The minimum concentration of test compounds combined with imipenem (4 μg/mL) for bacteriostasis [6]	The minimum concentration of test compounds combined with imipenem (4 μg/mL) for bacteriostasis [7]	The minimum concentration of test compounds combined with imipenem (4 μg/mL) for bacteriostasis [8]	The minimum concentration of test compounds combined with ceftazidime (8 μg/mL) for bacteriostasis [9]	The minimum concentration of test compounds combined with ceftazidime (8 μg/mL) for bacteriostasis [10]	The minimum concentration of test compounds combined with ceftazidime (8 μg/mL) for bacteriostasis [11]	The minimum concentration of test compounds combined with ceftazidime (8 μg/mL) for bacteriostasis [12]	The minimum concentration of test compounds combined with ceftazidime (8 μg/mL) for bacteriostasis [13]	The minimum concentration of test compounds combined with ceftazidime (8 μg/mL) for bacteriostasis [14]	The minimum concentration of test compounds combined with ceftazidime (8 μg/mL) for bacteriostasis [15]	The minimum concentration of test compounds combined with ceftazidime (8 μg/mL) for bacteriostasis [16]
NCC(O)c1nnc([C@@H]2CC3(CC3)[C@@H]3CN2C(=O)N3OS(=O)(=O)O)o1 (stereo partly drawn) [Example 9, (1R,4S)-4-(5-(2-amino-1-hydroxyethyl)-1,3,4-oxadiazol-2-yl)-6-oxo-5,7-diazaspiro [bicyclo[3.2.1]octane-2,1′-cyclopropan]-7-yl sulfate]	A (A: <8 μg/mL)	A (A: <8 μg/mL)	A (A: <8 μg/mL)	A (A: <8 μg/mL)	A (A: <8 μg/mL)	A (A: <8 μg/mL)	A (A: <8 μg/mL)	A (A: <8 μg/mL)	A (A: <8 μg/mL)	B (B: 8-16 μg/mL)	A (A: <8 μg/mL)	A (A: <8 μg/mL)	A (A: <8 μg/mL)	A (A: <8 μg/mL)	A (A: <8 μg/mL)	C (C: 16-128 μg/mL)
N=C(N)NCC(O)c1nnc([C@@H]2CC3(CC3)[C@@H]3CN2C(=O)N3OS(=O)(=O)O)o1 (stereo partly drawn) [Example 10, (1R,4S)-4-(5-(2-guanidyl-1-hydroxyethyl)-1,3,4-oxadiazol-2-yl)-6-oxo-5,7-diazaspiro [bicyclo[3.2.1]octane-2,1′-cyclopropan]-7-yl sulfate]	A (A: <8 μg/mL)	A (A: <8 μg/mL)	A (A: <8 μg/mL)	A (A: <8 μg/mL)	A (A: <8 μg/mL)	A (A: <8 μg/mL)	A (A: <8 μg/mL)	A (A: <8 μg/mL)	A (A: <8 μg/mL)	B (B: 8-16 μg/mL)	A (A: <8 μg/mL)	A (A: <8 μg/mL)	A (A: <8 μg/mL)	A (A: <8 μg/mL)	A (A: <8 μg/mL)	C (C: 16-128 μg/mL)
N=C(N)NC[C@@H](O)c1nnc([C@@H]2CC3(CC3)[C@@H]3CN2C(=O)N3OS(=O)(=O)O)o1 [Example 11, (1R,4S)-4-(5-((R)-2-guanidyl-1-hydroxyethyl)-1,3,4-oxadiazol-2-yl)-6-oxo-5,7-diazaspiro[bicyclo[3.2.1]octane-2,1′-cyclopropan]-7-yl sulfate]	A (A: <8 μg/mL)	B (B: 8-16 μg/mL)	A (A: <8 μg/mL)	A (A: <8 μg/mL)	A (A: <8 μg/mL)	A (A: <8 μg/mL)	A (A: <8 μg/mL)	B (B: 8-16 μg/mL)	A (A: <8 μg/mL)	C (C: 16-128 μg/mL)	A (A: <8 μg/mL)	A (A: <8 μg/mL)	A (A: <8 μg/mL)	A (A: <8 μg/mL)	A (A: <8 μg/mL)	C (C: 16-128 μg/mL)
N=C(N)NC[C@H](O)c1nnc([C@@H]2CC3(CC3)[C@@H]3CN2C(=O)N3OS(=O)(=O)O)o1 [Example 12, (1R,4S)-4-(5-((S)-2-guanidyl-1-hydroxyethyl)-1,3,4-oxadiazol-2-yl)-6-oxo-5,7-diazaspiro[bicyclo[3.2.1]octane-2,1′-cyclopropan]-7-yl sulfate]	A (A: <8 μg/mL)	B (B: 8-16 μg/mL)	A (A: <8 μg/mL)	A (A: <8 μg/mL)	A (A: <8 μg/mL)	A (A: <8 μg/mL)	A (A: <8 μg/mL)	B (B: 8-16 μg/mL)	A (A: <8 μg/mL)	C (C: 16-128 μg/mL)	A (A: <8 μg/mL)	A (A: <8 μg/mL)	B (B: 8-16 μg/mL)	A (A: <8 μg/mL)	B (B: 8-16 μg/mL)	C (C: 16-128 μg/mL)
